Assay results from patent publication US20140243396A1, “METHOD OF TREATING MUCOEPIDERMOID CARCINOMA” (DANA-FARBER CANCER INSTITUTE, INC., priority 2011, published 2014).

Columns and labels:
H292 and H3118 cells [1] = test: Cell growth, cell count by trypan blue exclusion; format: cell-based
Protocol: (§1) FIG. 2 illustrates inhibition of PDE4B by pharmacological inhibitor rolipram plus forskolin prevents cell growth, causes cell cycle arrest and induces apoptosis in fusion positive MEC cells. Rolipram (R), forskolin (FK), Rolipram plus forskolin (R+FK) or DMSO. Columns: mean, bars: SD (n>3), *p<0.05, **p<0.01, ***p<0.001, compared to HSY cell growth. B. 1×10^5 cells were treated with 50 μM R plus 20 μM FK or DMSO for 24 hours. C. 1×10^5 cells were treated with 50 μM rolipram plus 20 μM forskolin with or DMSO for 48 hours. Apoptosis assay was performed by PI and Annexin-V staining and analyzed by flow cytometry. Columns: mean, bars: SD (n=3). *p<0.05, compared with DMSO treated cells.
FIG. 6 illustrates PI3-kinase signaling contributes to MEC cell growth. A. Effects of PI3-kinase inhibitor LY-294002 or Compound A on MEC cell growth. […] The same blot was stripped and probed with anti-AKT or anti-V.-actin antibody. Image was cropped and auto-leveled by Photoshop. A representative of three independent experiments. (Right) MEC cell growth was measured by MTS assay on day 5 of LY-294002 or Compound A treatment. Points: mean, bars: SD (n=3). B. Effects of knock-down of PI3-kinase α or β on MEC cell growth. […] H3118 cell lysates were prepared on day 5 post-transduction. Image was cropped and auto-leveled by Photoshop. (Lower) Effects of knock-down of PI3-kinase α or β on MEC cell growth. 1×10^5 cells were transduced twice with lenti-viruses harboring shRNAs targeting PI3-K α, β or scramble control. Cell numbers were counted by trypan blue exclusion on day 5 posttransduction. Cell growth of scramble control virus infected cells was set to 100%, Columns: mean, bars: SD (n=3). **p<0.01, ***p<0.001 compared to control cells. C. Effects of Compound A in combination of rolipram plus forskolin on of MEC cell growth. 1×10^5 cells were treated with the combination of inhibitors listed. Cell numbers were counted by trypan blue exclusion on day 5, Columns: mean, bars: SD (n=3).
(§2) The Methods were described previously (Chen et al. Genes Cancer, 1:822-835 (2010)). Cell growth: 1-2×10^5 cells were infected with lenti-virus harboring specific shRNAs. On day 5 post infection, cells were counted by trypan blue exclusion. MTS proliferation assay (Promega, Madison, Wis.): 1-2×10^3 cells were treated with LY-294002, Compound A or DMSO in the concentration as indicated in FIG. 6A. MTS activities were measured on day 5. Cell cycle analysis: 1×10^5 cells were treated with inhibitors or infected with viruses. DNA amount was measured by flow cytometry analysis (BD FACScans). Apoptosis assay: 1×10^5 cells were treated with inhibitors or infected with virus. Cell viability was measured using the Annexin-V-FLUOS Staining Kit (Roche Diagnostics, Indianapolis, Ind.) by flow cytometry analysis (BD FACScans).

HSY cells [2] = test: Cell growth, cell count by trypan blue exclusion; format: cell-based
Protocol: as §1
(§3) FIG. 3 illustrates knock-down of PDE4B inhibits fusion positive MEC cell growth, causes cell cycle arrest and induces apoptosis. A. H3118 cell lysate was prepared on day 5 post-transduction and subjected to western blot analysis. Image was cropped and auto-leveled by Photoshop. A representative of three independent experiments. B. 1×10^5 MEC cells were infected twice by shRNA No. 1 and No. 2 and cell number was count on day 5 post-transduction by trypan blue exclusion. Columns: mean, bars: SD (n>3). *p<0.05, **p<0.01, compared with scramble control virus infected cell growth. C. 1×10^5 cells were infected twice by shRNA No. 2. Cell cycle was determined by PI staining followed by FACS analysis on day 5 post-transduction, n=3. D. 1×10^5 cells were infected twice by shRNA No. 2. Apoptosis assay was performed by PI and Annexin-V staining and analyzed by flow cytometry on day 5 post-transduction, Columns: mean, bars: SD (n=3). *p<0.05, compared with control cells.
as §2

PDE4B = PDE4B expression in cells (qPCR); format: cell-based; settings: vs shLUC
Protocol: FIG. 1 illustrates identification of CRTC1-MAML2 Target genes. […] RT-qPCR experiments were performed in triplicates. Columns: mean, bars: SD (n=3). *p<0.05, compared with expression from shLUC infected cells (Student t test). B Inhibition of CRTC1-MAML2 inhibited H3118 and H292 cell growth. Columns: mean, bars: SD (n=3). *p<0.05, **p<0.01, ***p<0.001, compared with shLUC. […] Columns: mean, bars: SD (n=3). […] Image was cropped and auto-leveled by Photoshop. A representative of three independent experiments.
Total RNA was isolated by the Trizol method (Invitrogen). qPCR was performed using ABI PRISM 7500 sequence detector (Applied Biosystems, Foster City, Calif.) by SYBR method (Applied Biosystems). The SYBR method uses SYBR Green I dye, which is a highly specific, double-stranded DNA binding dye, to detect PCR product as it accumulates during PCR cycles. All samples were amplified in triplicates. The relative change of transcript amount was normalized with the GAPDH mRNA expression levels (20).

H292 cells [3] = test: Cell growth, cell count by trypan blue exclusion; format: cell-based; settings: PDE4B knock-down, day 5 post-transduction, compared to scramble control
Protocol: as §3, §2

H3118 cells [4] = test: Cell growth, cell count by trypan blue exclusion; format: cell-based; settings: PDE4B knock-down, day 5 post-transduction, compared to scramble control
Protocol: as §3, §2

H292 cells [5] = test: Cell cycle analysis by flow cytometry; format: cell-based; settings: PDE4B knock-down, day 5 post-transduction; scramble control 50%
Protocol: as §1, §3
(§4) The Methods were described previously (Chen et al. Genes Cancer, 1:822-835 (2010)). […] On day 5 post infection, cells were counted by trypan blue exclusion. […] MTS activities were measured on day 5. […] DNA amount was measured by flow cytometry analysis (BD FACScans). […] Cell viability was measured using the Annexin-V-FLUOS Staining Kit (Roche Diagnostics, Indianapolis, Ind.) by flow cytometry analysis (BD FACScans).

H3118 cells [6] = test: Cell cycle analysis by flow cytometry; format: cell-based; settings: PDE4B knock-down, day 5 post-transduction; scramble control 57%
Protocol: as §1, §3, §4

HSY cells [7] = test: Cell cycle analysis by flow cytometry; format: cell-based; settings: PDE4B knock-down
Protocol: as §1, §3, §4

H292 and H3118 cells [8] = test: Apoptosis assay, PI and Annexin-V staining; format: cell-based; settings: PDE4B knock-down, day 5 post-transduction
Protocol: as §1
(§5) FIG. 3 illustrates knock-down of PDE4B inhibits fusion positive MEC cell growth, causes cell cycle arrest and induces apoptosis. […] Cell cycle was determined by PI staining followed by FACS analysis on day 5 post-transduction, n=3. […] Apoptosis assay was performed by PI and Annexin-V staining and analyzed by flow cytometry on day 5 post-transduction, Columns: mean, bars: SD (n=3). *p<0.05, compared with control cells.
(§6) The Methods were described previously (Chen et al. Genes Cancer, 1:822-835 (2010)). […] On day 5 post infection, cells were counted by trypan blue exclusion. […] MTS activities were measured on day 5. […] DNA amount was measured by flow cytometry analysis (BD FACScans). […]

HSY cells [9] = test: Apoptosis assay, PI and Annexin-V staining; format: cell-based; settings: PDE4B knock-down, day 5 post-transduction
Protocol: as §1, §5, §6

H3118 cells [10] = test: In vivo murine xenograft model; design: species or system SCID hairless (SHO) mice
Source text: FIG. 4 illustrates knock-down of PDE4B inhibited MEC cell growth in vivo. A. Tumor volume in SCID hairless mice. Points: mean of 5 tumors, bars: SD (n=5). ***p<0.001, compared to control tumor. B. Representative picture of the tumors dissected from the mice after sacrifice on day 30. Five pair (shPDE4B vs. scramble control) of tumors was shown (n=5). C. Tumor weight from SCID hairless mice. Tumors were weighted on day 30 at sacrifice. Columns: mean, bars: SD (n=5). ***p<0.001, compared to control tumor weight. D. RT-qPCR analysis of PDE4B expression from the tumor biopsies. Columns: mean, bars: SD (n=3). ***p<0.001, compared to control tumor.
Mice were maintained and treated in accordance with institutional guidelines of Dana Farber Cancer Institute Animal Resource Facilities. H3118 cells were infected twice with shPDE4B-2 or scramble control virus. On day three post-transduction, 5×10^6 shPDE4B cells were injected subcutaneously (s.c.) into one flank of a SCID hairless (SHO) mice (Charles River Laboratories International, Inc., Wilmington, Mass.) and 5×10^6 control cells were injected into the opposite flank (Dubrovska et al., Proc Natl Acad Sci USA, 2009, 106: 268-273; Serra et al. Cancer Res, 2008, 68: 8022-8030). A total of five mice were used. The tumor volume was measured every two days starting from day 10, volume=(length×width2)×(π/6). Mice were sacrificed on day 30. The tumors were excised and the weight was measured.

H292 and H3118 cells [11] = test: MTS proliferation assay; format: cell-based; settings: Homo sapiens, NCI-H292, 120 h, MTS assay on day 5 of treatment, read-out: IC50, cell growth
Protocol: FIG. 6 illustrates PI3-kinase signaling contributes to MEC cell growth. A. Effects of PI3-kinase inhibitor LY-294002 or Compound A on MEC cell growth. […] The same blot was stripped and probed with anti-AKT or anti-V.-actin antibody. Image was cropped and auto-leveled by Photoshop. A representative of three independent experiments. (Right) MEC cell growth was measured by MTS assay on day 5 of LY-294002 or Compound A treatment. Points: mean, bars: SD (n=3). B. Effects of knock-down of PI3-kinase α or β on MEC cell growth. […] cell lysates were prepared on day 5 post-transduction. Image was cropped and auto-leveled by Photoshop. […] Cell numbers were counted by trypan blue exclusion on day 5 posttransduction. […] SD (n=3). **p<0.01, ***p<0.001 compared to control cells. C. […] Cell numbers were counted by trypan blue exclusion on day 5, Columns: mean, bars: SD (n=3). The Methods were described previously (Chen et al. […] On day 5 post infection, cells were counted by trypan blue exclusion. MTS proliferation assay (Promega, Madison, Wis.): 1-2×10^3 cells were treated with LY-294002, Compound A or DMSO in the concentration as indicated in FIG. 6A. MTS activities were measured on day 5. […] DNA amount was measured by flow cytometry analysis (BD FACScans). […] Cell viability was measured using the Annexin-V-FLUOS Staining Kit (Roche Diagnostics, Indianapolis, Ind.) by flow cytometry analysis (BD FACScans).

H3118 cells [12] = test: Microarray gene expression after CRTC1-MAML2 knock-down; format: cell-based
Protocol: H3118 or HSY cells were transduced twice with retro-virus harboring shLUC or sh#D. GFP-positive cells were sorted 48 hours post-transduction. Total RNA was extracted using Trizol reagents (Invitrogen) and purified by RNAeasy Mini Column (QIAGEN). Hybridization with Affymetrix U133A plus—2 microarray chips was performed and analyzed at Dana-Farber Cancer Institute Microarray Core. The d-Chip analysis software was used for the analysis; Li, C. and Wong, W. H. Proc. Natl. Acad. Sci. USA […]. Genes with three fold expression changes in H3118 cells were considered significant (n=3, p<=0.05).

[13] = retroviral shRNA, fusion-positive H292 and H3118 cells, compared to shLUC
[14] = retroviral shRNA, fusion-negative HSY cells, compared to shLUC

## COc1ccc(C2CNC(=O)C2)cc1OC1CCCC1 (stereo not shown) [rolipram, 4-(3-cyclopentyloxy-4-methoxyphenyl)pyrrolidin-2-one]
H292 and H3118 cells [1]; inhibitor treatment, MEC cells
  cell growth (in words): not changed

## shRNA #A: small hairpin RNA targeting the MAML2 moiety of CRTC1-MAML2, GTAATCAACCTAACACATA, SEQ ID NO 3
H292 and H3118 cells [1]; [13]
  cell growth (in words): significantly inhibited cell growth
HSY cells [2]; [14]
  cell growth (in words): no significant effect
PDE4B; H3118 and H292 cells
  PDE4B expression (in words): significantly inhibited PDE4B expression
PDE4B; fusion negative HSY cells
  PDE4B expression (in words): not

## shRNA #2: shRNA lenti-viral construct targeting PDE4B, SEQ ID NO 2 (CCGGGCGCAGAGAGTCATTTCTCTACTCGAGTAGAGAAATGACTCTCTGCGCTTTTTG)
H292 cells [3]
  growth inhibition: 74%
H3118 cells [4]
  growth inhibition: 83%
HSY cells [2]; HSY cells, PDE4B knock-down
  cell growth (in words): slight growth reduction
H292 cells [5]
  cells arrested at G0/G1 phase: 78%
H3118 cells [6]
  cells arrested at G0/G1 phase: 79%
HSY cells [7]
  cell cycle arrest (in words): much less effect
H292 and H3118 cells [8]
  apoptosis (in words): significant apoptosis
HSY cells [9]
  apoptosis (in words): no significant effect
H3118 cells [10]; H3118 cells with PDE4B knock-down vs control cells, s.c., tumor volume every two days
  tumor growth in vivo (in words): significantly slower
H3118 cells [10]; RT-qPCR, compared to controls
  repression of PDE4B expression in tumor biopsies: 71%
H3118 cells [10]; day 30 at sacrifice
  average tumor weight, less than controls: 88%

## O=c1cc(N2CCOCC2)oc2c(-c3ccccc3)cccc12 [LY-294002]
H292 and H3118 cells [11]
  IC50: 4 to 10 µM

## shRNA #D: small hairpin RNA targeting the MAML2 moiety of CRTC1-MAML2, GACAGAGCCTGGTAATGAT, SEQ ID NO 4
H292 and H3118 cells [1]; [13]
  cell growth (in words): significantly inhibited cell growth
HSY cells [2]; [14]
  cell growth (in words): no significant effect
PDE4B; H3118 and H292 cells
  PDE4B expression (in words): significantly inhibited PDE4B expression
PDE4B; fusion negative HSY cells
  PDE4B expression (in words): not
H3118 cells [12]; CRTC1-MAML2 depletion
  PDE4B expression, down-regulation: 17 fold
H3118 cells [12]; CRTC1-MAML2 knock-down vs luciferase knock-down
  HES2 expression, up-regulation: 7 fold

## Cn1c(=O)n(-c2ccc(C(C)(C)C#N)cc2)c2c3cc(-c4cnc5ccccc5c4)ccc3ncc21 [Compound A, 2-methyl-2-[4-(3-methyl-2-oxo-8-quinolin-3-yl-2,3-dihydroimidazo[4,5-c]quinolin-1-yl)-phenyl]propionitrile]
H292 and H3118 cells [11]
  IC50: 0.006 to 0.02 µM
H292 and H3118 cells [1]; MEC cells, cell count by trypan blue exclusion on day 5
  effect on MEC cell growth when combined with rolipram and forskolin: additive effect

## shRNA #1: shRNA lenti-viral construct targeting PDE4B, SEQ ID NO 1 (CCGGGCTTGAGTAAATCCTACAGTTCTCGAGAACTGTAGGATTTACTCAAGCTTTTTG)
H292 cells [3]
  growth inhibition: 74%
H3118 cells [4]
  growth inhibition: 83%
HSY cells [2]; HSY cells, PDE4B knock-down
  cell growth (in words): slight growth reduction
